The text below walks through data of patent US20260337172A1, “AMINOPIPERAZINES WITH BROAD SPECTRUM ANTIMICROBIAL ACTIVITY” (The United States Government as represented by the …, priority 2022, published 2026).

Values after ≈ are worked out from the molar mass of the structure shown. Like-named read-outs stand apart in the source and are kept apart here.

The experiment has as its system C. auris. Briefly: minimum inhibitory concentration, C. auris (Table 3). Type of experiment: cell-based, Candida auris. The note with it: Candidozyma auris. From the text: Table 2 and Table 3 below show the minimum inhibitory concentration values for the synthesized compounds as tested on bacterial strains.
Where [1] appears, read: 50% inhibition, first of two values in cell, read-out: minimum inhibitory concentration, C. auris 50% inhib.
[2] abbreviates: 50% inhibition, second of two values in cell, read-out: minimum inhibitory concentration, C. auris 50% inhib.
The mark [3] stands for this setting: 90% inhibition, first of two values in cell, read-out: minimum inhibitory concentration, C. auris 90% inhib.
Setting [4] is: 90% inhibition, second of two values in cell, read-out: minimum inhibitory concentration, C. auris 90% inhib.

Regarding `C[C@@H]1[C@H](O)[C@@H](C)/C=C/C=C/C=C/C=C/C=C/C=C/C=C/[C@H](O[C@@H]2O[C@H](C)[C@@H](O)[C@H](N)[C@@H]2O)C[C@@H]2O[C@](O)(C[C@@H](O)C[C@@H](O)[C@H](O)CC[C@@H](O)C[C@@H](O)CC(=O)O[C@H]1C)C[C@H](O)[C@H]2C(=O)O` [Amphotericin B, reference compound], the MIC was 1 µg/mL (≈ 1.08 µM) under setting [1], 1 µg/mL (≈ 1.08 µM) under setting [2], 1 µg/mL (≈ 1.08 µM) under setting [3] and 1 µg/mL (≈ 1.08 µM) under setting [4].

For `CN1CCN(/N=C/c2ccc(Cl)c([N+](=O)[O-])c2)CC1` [Compound 3], the MIC under setting [1] is 256 µg/mL (≈ 905 µM), the MIC under setting [2] came out at 128 µg/mL (≈ 453 µM), the MIC under setting [3] was found to be 256 µg/mL (≈ 905 µM) and the MIC under setting [4] was determined as 256 µg/mL (≈ 905 µM).

On to `CN1CCN(/N=C/c2ccc([N+](=O)[O-])cc2)CC1` [Compound 4], for which the MIC runs as follows: under setting [1], 256 µg/mL (≈ 1030 µM); under setting [2], 256 µg/mL (≈ 1030 µM); under setting [3], greater than 256 µg/mL; under setting [4], greater than 256 µg/mL.

For `COc1ccc(/C=N/N2CCN(C)CC2)c2ccccc12` [Compound 5, (E)-1-(4-methoxynaphthalen-1-yl)-N-(4-methylpiperazin-1-yl)methanimine], the MIC by setting is: under setting [1], 128 µg/mL (≈ 452 µM); under setting [2], 128 µg/mL (≈ 452 µM); under setting [3], 256 µg/mL (≈ 903 µM); under setting [4], 256 µg/mL (≈ 903 µM).

Regarding `CN1CCN(/N=C/c2ccc(-c3ccccc3)cc2)CC1` [Compound 17], the MIC is, setting by setting: under setting [1], 64 µg/mL (≈ 229 µM); under setting [2], 64 µg/mL (≈ 229 µM); under setting [3], 128 µg/mL (≈ 458 µM); under setting [4], 128 µg/mL (≈ 458 µM).

As for `COc1cccc(/C=N/N2CCN(C)CC2)c1O` [Compound 20], the MIC is, setting by setting: under setting [1], 128 µg/mL (≈ 513 µM); under setting [2], 128 µg/mL (≈ 513 µM); under setting [3], 256 µg/mL (≈ 1030 µM); under setting [4], 256 µg/mL (≈ 1030 µM).
